Among the data in BindingDB's records for PubMed 20126400 (University of Oklahoma, 2010) are Ki values, retold here.

Common to all, as to assay: Ray2010 Assay 74
One assay concerns the target Histamine H2 receptor (Homo sapiens, UniProt P25021). From the text: (§1) Table S2 shows raw Ki data for the current study combined with data collected from the literature for the ten additional compounds.
The target in assay [1] is T1, Alpha-1A adrenergic receptor (Homo sapiens, UniProt P35348).
T1 sequence (P35348 whole entry): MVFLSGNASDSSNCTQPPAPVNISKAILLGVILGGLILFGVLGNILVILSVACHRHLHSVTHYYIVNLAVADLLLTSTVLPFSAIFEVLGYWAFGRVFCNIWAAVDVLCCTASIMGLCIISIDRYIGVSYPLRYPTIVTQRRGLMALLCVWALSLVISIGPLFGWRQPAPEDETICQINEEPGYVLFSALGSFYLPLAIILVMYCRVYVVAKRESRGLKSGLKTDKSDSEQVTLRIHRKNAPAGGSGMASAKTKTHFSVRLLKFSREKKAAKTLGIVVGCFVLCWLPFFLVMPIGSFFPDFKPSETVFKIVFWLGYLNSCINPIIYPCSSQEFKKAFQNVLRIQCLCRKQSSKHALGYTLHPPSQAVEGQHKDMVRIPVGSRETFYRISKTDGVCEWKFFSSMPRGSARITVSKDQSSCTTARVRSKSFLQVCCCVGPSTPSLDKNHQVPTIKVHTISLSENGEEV
Source text: as §1

For a further assay, the target named is D(1A) dopamine receptor (Homo sapiens, UniProt P21728).
D(1A) dopamine receptor, sequence (P21728 whole entry): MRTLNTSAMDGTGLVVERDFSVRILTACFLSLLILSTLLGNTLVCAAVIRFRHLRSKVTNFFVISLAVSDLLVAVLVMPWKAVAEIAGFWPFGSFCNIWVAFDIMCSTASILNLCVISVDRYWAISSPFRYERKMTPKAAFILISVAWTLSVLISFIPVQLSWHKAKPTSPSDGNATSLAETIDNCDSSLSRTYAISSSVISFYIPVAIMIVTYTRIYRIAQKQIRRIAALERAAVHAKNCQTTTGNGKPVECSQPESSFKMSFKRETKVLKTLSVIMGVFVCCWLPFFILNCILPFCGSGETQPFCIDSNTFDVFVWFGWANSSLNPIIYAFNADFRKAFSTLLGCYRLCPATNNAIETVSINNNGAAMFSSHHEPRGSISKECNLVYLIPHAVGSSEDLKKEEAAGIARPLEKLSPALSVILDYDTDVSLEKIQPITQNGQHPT
Source text: as §1

In assay [2] the target is T2, Muscarinic acetylcholine receptor M5 (Homo sapiens, UniProt P08912).
T2 sequence (P08912 whole entry): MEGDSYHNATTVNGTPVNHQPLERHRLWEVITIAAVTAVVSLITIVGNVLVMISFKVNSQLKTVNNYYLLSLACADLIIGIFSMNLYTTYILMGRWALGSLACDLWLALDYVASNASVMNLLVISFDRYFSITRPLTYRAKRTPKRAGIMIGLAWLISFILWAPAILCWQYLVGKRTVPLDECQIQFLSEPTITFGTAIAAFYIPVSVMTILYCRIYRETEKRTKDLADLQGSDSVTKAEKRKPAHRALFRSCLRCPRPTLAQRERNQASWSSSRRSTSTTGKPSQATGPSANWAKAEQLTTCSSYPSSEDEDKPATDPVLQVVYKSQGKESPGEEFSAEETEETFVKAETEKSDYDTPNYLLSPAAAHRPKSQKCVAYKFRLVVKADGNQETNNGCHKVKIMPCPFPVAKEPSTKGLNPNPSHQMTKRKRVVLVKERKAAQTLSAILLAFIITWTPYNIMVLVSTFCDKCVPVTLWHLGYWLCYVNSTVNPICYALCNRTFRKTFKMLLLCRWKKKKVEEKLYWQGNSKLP
Source text: as §1

The target in assay [3] is T3, Gamma-aminobutyric acid receptor subunit alpha-1 (Homo sapiens, UniProt P14867).
T3 sequence (P14867 whole entry): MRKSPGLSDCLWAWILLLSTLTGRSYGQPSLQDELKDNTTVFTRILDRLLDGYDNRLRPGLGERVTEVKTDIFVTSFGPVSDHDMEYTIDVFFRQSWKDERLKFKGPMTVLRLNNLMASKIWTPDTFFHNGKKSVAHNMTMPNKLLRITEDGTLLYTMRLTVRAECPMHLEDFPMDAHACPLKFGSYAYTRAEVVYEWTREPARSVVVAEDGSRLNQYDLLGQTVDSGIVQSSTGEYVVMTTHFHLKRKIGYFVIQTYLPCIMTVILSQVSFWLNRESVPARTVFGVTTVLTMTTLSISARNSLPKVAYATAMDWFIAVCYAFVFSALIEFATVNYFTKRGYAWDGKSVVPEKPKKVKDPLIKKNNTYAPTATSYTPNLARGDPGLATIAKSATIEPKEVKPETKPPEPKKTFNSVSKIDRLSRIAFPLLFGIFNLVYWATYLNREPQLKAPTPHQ
Source text: as §1

Assay [4] has as its target Sodium-dependent dopamine transporter (Homo sapiens, UniProt Q01959).
Source text: as §1

Assay [5] deals with 5-hydroxytryptamine receptor 2A (Homo sapiens, UniProt P28223).
5-hydroxytryptamine receptor 2A, sequence (P28223 whole entry): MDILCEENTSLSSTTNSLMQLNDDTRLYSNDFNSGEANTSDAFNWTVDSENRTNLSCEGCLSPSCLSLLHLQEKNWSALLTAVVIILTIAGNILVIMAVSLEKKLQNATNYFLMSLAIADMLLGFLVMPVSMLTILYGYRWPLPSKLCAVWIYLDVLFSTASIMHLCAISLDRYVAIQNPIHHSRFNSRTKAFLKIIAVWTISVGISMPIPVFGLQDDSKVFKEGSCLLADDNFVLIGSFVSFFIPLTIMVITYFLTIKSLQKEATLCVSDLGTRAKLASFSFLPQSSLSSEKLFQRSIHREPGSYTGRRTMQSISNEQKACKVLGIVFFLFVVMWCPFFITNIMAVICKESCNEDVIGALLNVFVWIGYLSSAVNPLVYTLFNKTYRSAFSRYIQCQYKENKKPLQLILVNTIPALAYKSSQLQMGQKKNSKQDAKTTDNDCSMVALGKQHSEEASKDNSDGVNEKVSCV
Source text: as §1

Assay [6] has as its target 5-hydroxytryptamine receptor 6 (Homo sapiens, UniProt P50406).
Source text: as §1

Assay [7] deals with 5-hydroxytryptamine receptor 1E (Homo sapiens, UniProt P28566).
5-hydroxytryptamine receptor 1E, sequence (P28566 whole entry): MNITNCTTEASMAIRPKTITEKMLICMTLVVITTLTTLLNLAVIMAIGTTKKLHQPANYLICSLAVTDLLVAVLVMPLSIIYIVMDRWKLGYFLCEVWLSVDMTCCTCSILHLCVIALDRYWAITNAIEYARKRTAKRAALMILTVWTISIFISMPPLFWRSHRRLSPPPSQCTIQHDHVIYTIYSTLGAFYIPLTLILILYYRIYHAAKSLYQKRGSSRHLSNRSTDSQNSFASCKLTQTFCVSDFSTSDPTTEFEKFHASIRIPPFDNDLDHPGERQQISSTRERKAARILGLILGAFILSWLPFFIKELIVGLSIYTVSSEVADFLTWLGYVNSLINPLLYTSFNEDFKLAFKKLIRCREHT
Source text: as §1

Assay [8] concerns the target T4, Alpha-2A adrenergic receptor (Homo sapiens, UniProt P08913).
T4 sequence (P08913 whole entry): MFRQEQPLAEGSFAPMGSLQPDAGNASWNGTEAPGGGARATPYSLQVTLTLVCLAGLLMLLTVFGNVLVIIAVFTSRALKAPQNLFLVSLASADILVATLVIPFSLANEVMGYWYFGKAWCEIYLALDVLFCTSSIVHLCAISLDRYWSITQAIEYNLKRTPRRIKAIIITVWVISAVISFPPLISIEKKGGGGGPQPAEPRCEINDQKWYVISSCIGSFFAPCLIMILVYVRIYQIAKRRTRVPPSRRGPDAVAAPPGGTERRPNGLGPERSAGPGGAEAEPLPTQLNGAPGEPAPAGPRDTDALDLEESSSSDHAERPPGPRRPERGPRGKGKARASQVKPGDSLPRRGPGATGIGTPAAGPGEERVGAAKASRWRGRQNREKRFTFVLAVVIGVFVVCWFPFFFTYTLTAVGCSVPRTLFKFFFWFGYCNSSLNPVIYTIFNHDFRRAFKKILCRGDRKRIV
Source text: as §1

Assay [9] has as its target 5-hydroxytryptamine receptor 2B (Homo sapiens, UniProt P41595).
Source text: as §1

Assay [10] deals with Kappa-type opioid receptor (Homo sapiens, UniProt P41145).
Kappa-type opioid receptor, sequence (P41145 whole entry): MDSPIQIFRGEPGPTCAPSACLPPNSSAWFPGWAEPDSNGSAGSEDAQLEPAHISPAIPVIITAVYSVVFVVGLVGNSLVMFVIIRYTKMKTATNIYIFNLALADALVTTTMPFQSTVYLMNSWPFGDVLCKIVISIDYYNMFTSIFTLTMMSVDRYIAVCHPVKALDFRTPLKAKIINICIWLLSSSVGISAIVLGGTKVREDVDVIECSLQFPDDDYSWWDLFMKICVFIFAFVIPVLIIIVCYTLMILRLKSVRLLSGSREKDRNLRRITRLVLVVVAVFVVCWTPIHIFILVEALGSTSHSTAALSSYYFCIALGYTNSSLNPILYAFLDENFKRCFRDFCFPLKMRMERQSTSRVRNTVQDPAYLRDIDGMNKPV
Source text: as §1

For assay [11], the target named is T5, 5-hydroxytryptamine receptor 1A (Homo sapiens, UniProt P08908).
T5 sequence (P08908 whole entry): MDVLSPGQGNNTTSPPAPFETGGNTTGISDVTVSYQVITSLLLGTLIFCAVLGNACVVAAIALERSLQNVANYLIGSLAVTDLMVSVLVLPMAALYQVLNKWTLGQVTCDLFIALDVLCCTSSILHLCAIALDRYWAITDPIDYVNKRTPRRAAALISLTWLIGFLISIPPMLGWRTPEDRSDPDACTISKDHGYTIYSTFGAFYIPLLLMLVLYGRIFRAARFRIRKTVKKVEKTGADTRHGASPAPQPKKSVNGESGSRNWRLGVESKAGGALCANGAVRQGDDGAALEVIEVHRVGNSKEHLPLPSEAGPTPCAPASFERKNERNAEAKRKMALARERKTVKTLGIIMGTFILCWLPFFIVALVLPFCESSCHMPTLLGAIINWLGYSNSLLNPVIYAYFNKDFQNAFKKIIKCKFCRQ
Source text: as §1

Assay [12] concerns the target Beta-1 adrenergic receptor (Homo sapiens, UniProt P08588).
Source text: as §1

5-hydroxytryptamine receptor 2B, sequence (P41595 whole entry): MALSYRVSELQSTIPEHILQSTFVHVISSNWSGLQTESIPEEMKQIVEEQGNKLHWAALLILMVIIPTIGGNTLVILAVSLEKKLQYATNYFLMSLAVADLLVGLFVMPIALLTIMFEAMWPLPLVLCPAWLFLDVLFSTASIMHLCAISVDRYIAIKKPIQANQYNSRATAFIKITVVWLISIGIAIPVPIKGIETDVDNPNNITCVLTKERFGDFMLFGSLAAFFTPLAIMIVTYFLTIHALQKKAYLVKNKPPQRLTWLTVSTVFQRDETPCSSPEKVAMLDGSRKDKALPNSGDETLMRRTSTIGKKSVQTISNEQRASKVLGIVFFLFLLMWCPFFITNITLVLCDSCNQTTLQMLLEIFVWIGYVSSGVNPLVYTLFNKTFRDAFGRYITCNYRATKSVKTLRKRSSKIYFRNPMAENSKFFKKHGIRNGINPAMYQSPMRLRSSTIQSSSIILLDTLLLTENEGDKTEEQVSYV
Histamine H2 receptor, sequence (P25021 whole entry): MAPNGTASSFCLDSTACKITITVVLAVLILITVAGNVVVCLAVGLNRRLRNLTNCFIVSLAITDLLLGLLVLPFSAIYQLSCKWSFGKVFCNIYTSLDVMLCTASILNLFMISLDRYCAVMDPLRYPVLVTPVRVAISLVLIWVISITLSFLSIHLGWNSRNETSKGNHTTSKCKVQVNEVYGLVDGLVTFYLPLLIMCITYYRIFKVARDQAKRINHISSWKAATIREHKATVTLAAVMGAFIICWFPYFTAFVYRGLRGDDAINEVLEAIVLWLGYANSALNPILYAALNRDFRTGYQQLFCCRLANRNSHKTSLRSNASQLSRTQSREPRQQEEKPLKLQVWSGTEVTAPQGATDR
Beta-1 adrenergic receptor, sequence (P08588 whole entry): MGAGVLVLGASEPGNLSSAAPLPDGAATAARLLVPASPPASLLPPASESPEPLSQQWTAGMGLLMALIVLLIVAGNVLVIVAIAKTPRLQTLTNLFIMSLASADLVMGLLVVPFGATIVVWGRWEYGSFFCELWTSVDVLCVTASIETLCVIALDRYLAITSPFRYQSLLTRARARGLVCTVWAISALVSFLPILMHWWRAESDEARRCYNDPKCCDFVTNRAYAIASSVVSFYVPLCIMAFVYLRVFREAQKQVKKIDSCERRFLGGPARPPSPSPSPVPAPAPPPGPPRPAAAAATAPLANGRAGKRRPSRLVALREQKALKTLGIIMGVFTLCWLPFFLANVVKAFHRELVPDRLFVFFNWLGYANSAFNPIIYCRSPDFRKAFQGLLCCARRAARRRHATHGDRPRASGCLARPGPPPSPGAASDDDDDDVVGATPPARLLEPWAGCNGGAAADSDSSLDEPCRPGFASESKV
5-hydroxytryptamine receptor 6, sequence (P50406 whole entry): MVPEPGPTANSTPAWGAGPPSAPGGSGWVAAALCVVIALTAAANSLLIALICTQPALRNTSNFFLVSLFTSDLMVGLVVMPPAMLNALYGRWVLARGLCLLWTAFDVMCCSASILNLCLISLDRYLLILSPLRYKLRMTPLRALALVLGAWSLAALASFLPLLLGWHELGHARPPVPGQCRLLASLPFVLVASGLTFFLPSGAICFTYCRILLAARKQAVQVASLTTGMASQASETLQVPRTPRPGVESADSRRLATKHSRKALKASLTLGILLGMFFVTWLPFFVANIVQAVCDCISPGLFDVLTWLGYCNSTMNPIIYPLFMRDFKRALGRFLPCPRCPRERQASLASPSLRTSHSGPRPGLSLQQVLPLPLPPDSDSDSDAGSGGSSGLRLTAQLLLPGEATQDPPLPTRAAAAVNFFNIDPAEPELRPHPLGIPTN
Sodium-dependent dopamine transporter, sequence (Q01959 whole entry): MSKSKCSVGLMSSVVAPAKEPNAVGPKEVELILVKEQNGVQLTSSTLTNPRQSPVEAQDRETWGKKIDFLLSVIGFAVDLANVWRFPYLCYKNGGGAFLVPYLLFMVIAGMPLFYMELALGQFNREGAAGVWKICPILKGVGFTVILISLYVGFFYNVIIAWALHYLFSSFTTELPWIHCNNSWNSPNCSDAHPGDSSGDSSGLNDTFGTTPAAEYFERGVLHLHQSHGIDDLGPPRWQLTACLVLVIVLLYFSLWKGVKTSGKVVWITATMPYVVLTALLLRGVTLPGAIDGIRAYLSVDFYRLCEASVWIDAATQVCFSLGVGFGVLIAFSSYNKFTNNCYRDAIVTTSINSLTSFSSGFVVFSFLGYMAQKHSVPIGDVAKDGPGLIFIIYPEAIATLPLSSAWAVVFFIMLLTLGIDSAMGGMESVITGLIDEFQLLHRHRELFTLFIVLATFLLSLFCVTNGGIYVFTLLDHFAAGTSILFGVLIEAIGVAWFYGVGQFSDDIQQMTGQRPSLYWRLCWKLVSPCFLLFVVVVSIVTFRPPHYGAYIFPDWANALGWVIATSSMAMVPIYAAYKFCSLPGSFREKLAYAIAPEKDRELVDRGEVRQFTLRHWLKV

As to `COc1cc(CCN)c(OC)cc1Br`, the inhibition constant Ki (at Histamine H2 receptor; in assay [1]; on D(1A) dopamine receptor; in [2]; in assay [3]; in [4]) was greater than 10 µM throughout. The Ki (usually a dissociation constant, usually derived from enzyme kinetics or from competition with a known ligand) in assay [5] is 0.0276 µM; in assay [6], 0.32 µM; in [7], 0.12 µM; in assay [8] it was 0.309 µM; in assay [9], 0.0135 µM; in assay [10], greater than 10 µM. In addition, the Ki in [11] was 0.241 µM.
Turning to `CC[C@H]1C[C@@H]2C[C@H]3c4[nH]c5ccc(OC)cc5c4CCN(C2)[C@@H]13`, the Ki at D(1A) dopamine receptor was greater than 10 µM; in [3] it was greater than 10 µM; in assay [4], 1.98 µM; in assay [5], 14.1 µM; in [12] it was greater than 10 µM; in assay [11], greater than 10 µM.
Consider `CN(C)CCc1c[nH]c2ccccc12` [2-(1H-indol-3-yl)-N,N-dimethylethanamine], for which the inhibitory constant (Ki) on Histamine H2 receptor is greater than 10 µM; in assay [1], 1.75 µM; in assay [2], greater than 10 µM; in assay [3] it was greater than 10 µM; in assay [4], greater than 10 µM; in assay [5] it was 2.32 µM. For the same compound, the Ki in assay [6] is 0.487 µM; in assay [7], 0.456 µM; in assay [8], 1.56 µM; in assay [12], greater than 10 µM; in assay [10], greater than 10 µM.
Regarding `CCc1[nH]c2ccc(OC)cc2c1CCN(C)C` [2-ethyl-5-methoxy-N,N-dimethyltryptamine], the Ki in assay [2], in [4], in [5] and in assay [10] was greater than 10 µM throughout.
For `COC(=O)[C@@H]1C[C@H](OC(C)=O)C(=O)[C@H]2[C@@]1(C)CC[C@H]1C(=O)O[C@H](c3ccoc3)C[C@]21C` [2S,4aR,6a(R,7R,9S,10aS,10bR)-9-(acetyloxy)-2-(furan-3-yl)dodecahydro-6a,10b-dimethyl-4,10-dioxo-2H-naphtho[2,1-c]pyran-7-carboxylic acid methyl ester], the inhibition constant (Ki) (in assay [1]; at D(1A) dopamine receptor; in assay [2]; in [4]; in [5]; in [6]) was greater than 10 µM each time. The inhibition constant (Ki) in [7], in [9], in assay [12] and in assay [11] was greater than 10 µM in each case.
On to `COc1cc(CCN)cc(OC)c1OC` [3,4,5-trimethoxyphenylethylamine], for which the inhibition constant Ki (on Histamine H2 receptor; in [1]; on D(1A) dopamine receptor; in [2]; in assay [3]; in assay [4]) was greater than 10 µM in each case. In addition, the Ki in assay [5] was greater than 10 µM; in assay [6], greater than 10 µM; in assay [7] it was 5.2 µM; in assay [8], 8.93 µM; in assay [12] it was greater than 10 µM; in [10] it was greater than 10 µM. Also, in assay [11], affinity was put at a Ki of 1.84 µM.
On to `COc1ccc2[nH]cc(CCN(C)C)c2c1` [3-(2-DIMETHYLAMINOETHYL)-5-METHOXYINDOLE], for which the Ki at Histamine H2 receptor was greater than 10 µM; in [1], greater than 10 µM; on D(1A) dopamine receptor it was 0.0795 µM; in assay [2], greater than 10 µM; in assay [3] it was greater than 10 µM; in assay [4], greater than 10 µM. The results for the inhibition constant (Ki) in [8], in assay [12] and in [10] were 1.89 µM, greater than 10 µM and greater than 10 µM, respectively.
As for `CN(C)CCc1c[nH]c2cccc(O)c12` [4-hydroxy-N,N-dimethyltryptamine], the inhibition constant Ki (at Histamine H2 receptor; in [1]; in assay [3]; in assay [4]; in assay [12]; in assay [10]) was greater than 10 µM in each case.
Regarding `COc1ccc2[nH]c(C)c(CCN(C)C)c2c1` [[2-(5-Methoxy-2-methyl-1H-indol-3-yl)-ethyl]-dimethyl-amine (C2H2O)], the inhibition constant (Ki) in assay [2], in assay [4], in assay [5] and in assay [10] was greater than 10 µM each time.
Turning to `CCN(CC)C(=O)[C@@H]1C=C2c3cccc4[nH]cc(c34)C[C@H]2N(C)C1` [[N-methyl-3H]LSD], the inhibition constant Ki in assay [1] is 1.13 µM; at D(1A) dopamine receptor, 0.177 µM; in assay [3], greater than 10 µM; in assay [4] it was greater than 10 µM; in [10], greater than 10 µM.
`C[C@@H]1C[C@H](C)N1C(=O)C1C=C2c3cccc4[nH]cc(c34)C[C@H]2N(C)C1` (stereo partly drawn) [cis-2a]: the inhibitory constant (Ki) was 0.529 µM in assay [1]; 0.232 µM at D(1A) dopamine receptor; greater than 10 µM in [3]; greater than 10 µM in [4]; 0.0297 µM in assay [5]; 0.0129 µM in assay [6]. Moreover, the Ki is 0.195 µM in [7], 0.044 µM in assay [9], greater than 10 µM in [10] and 0.0023 µM in assay [11].
Turning to `C[C@@H]1C[C@@H](C)N1C(=O)C1C=C2c3cccc4[nH]cc(c34)C[C@H]2N(C)C1` (stereo partly specified) [rr-2b], the Ki in assay [1] is 5.19 µM; at D(1A) dopamine receptor, 0.342 µM; in [3] it was greater than 10 µM; in assay [4] it was greater than 10 µM; in assay [5], 0.69 µM; in assay [6] it was 0.0605 µM. Besides, the Ki is 0.138 µM in assay [7], 0.312 µM in [9], greater than 10 µM in assay [10] and 0.0052 µM in [11].
